Measurements: patent publication US6534522B2, “Subtype-selective NMDA receptor ligands and the use thereof” (Warner-Lambert Company, priority 1995, dated 2003)
Counter-ions that a name gives are not always drawn. Like-named read-outs stand apart in the source and are kept apart here.

How the values were obtained:
NR1A/2B NMDA receptor = NR1A/2B NMDA receptor (Rattus norvegicus, UniProt P35439+Q00960); test: Xenopus oocyte expression system, two-electrode voltage clamp, NR1A/2B; format: cell-based
From the text: (§1) Electrophysiological assays may be utilized to characterize the actions of potential subtype-selective ligands at NMDA receptors expressed in Xenopus oocytes. The ligand may be assayed at the different subunit combinations of cloned rat NMDA receptors corresponding to the four putative NMDA receptor subtypes (Moriyoshi et al., Nature (Lond.) 354:31-37 (1991); Monyer et al., Science (Washington, D.C.) 256:1217-1221 (1992); Kutsuwada et al., Nature (Lond.) 358:36-41 (1992); Sugihara et al., Biochem. Biophys. Res. Comm. 185:826-832 (1992)).
(§2) Using fixed saturating concentrations of agonists (glutamate 100 μM, glycine 1-10 μM depending on subunit combination), the inhibitory potency of a putative subtype-selective ligand may be assayed at the NMDA receptors assembled from NR1A/2A, NR1A/2B, NR1A/2C and NR1A/2D subunit combinations.
(§3) The Xenopus oocyte expression system. Mature female Xenopus laevis were anaesthetized (20-40 min) using 0.15% 3-aminobenzoic acid ethyl ester (MS-222) and 2-4 ovarian lobes were surgically removed. Oocytes at developmental stages IV-VI (Dumont, J. N., J. Morphol. 136:153-180 (1972)), were dissected from the ovary still surrounded by enveloping ovarian tissues. Follicle-enclosed oocytes were micro-injected with 1:1 mixtures of cRNA:NR1A+NR2A, 2B, 2C or 2D; injecting ˜2, 5, or 20 ng of RNA encoding each receptor subunit. NR1A encoding cRNA was injected alone at ˜20 ng. Oocytes were stored in Barth's medium containing (in mM): NaCl, 88; KCl, 1; CaCl2, 0.41; Ca(NO3)2, 0.33; MgSO4, 0.82; NaHCO3, 2.4; HEPES 5; pH 7.4, with 0.1 mg/mL gentamycin sulphate. While oocytes were still surrounded by enveloping ovarian tissues the Barth's medium was supplemented with 0.1% bovine serum. Oocytes were defolliculated 1-2 days following injections by treatment with collagenase (0.5 mg/mL Sigma Type I for 0.5-1 hr) (Miledi and Woodward, J. Physiol. (Lond.) 416:601-621 (1989)) and subsequently stored in serum-free medium.
(§4) Electrical recordings were made using a conventional two-electrode voltage clamp (Dagan TEV-200) over periods ranging between 3-21 days following injection. Oocytes were placed in a 0.1 mL recording chamber continuously perfused (5-15 mL min^−1) with frog Ringer's solution containing (in mM): NaCl, 115; KCl, 2; CaCl2, 1.8; HEPES, 5; pH 7.4. Drugs were applied by bath perfusion. When using the more rapid flow rates, half-times for mid-chamber solution changes were between 2-3 sec, however, exchange rates for drug solutions at the oocyte surface (i.e. beneath the vitelline envelope and among the tangles of microvilli) were probably considerably longer (Woodward et al., Mol. Pharmacol. 41:89-103 (1992)). Zero-Ca^2+/Ba^2+ Ringer had the composition (in mM): NaCl, 115; KCl, 2; BaCl2, 1.8; HEPES, 5; pH 7.4. Intraoocyte injections were made by pneumatic pressure-pulse ejection from micropipettes (Miledi and Parker, J. Physiol. (Lond.) 357:173-183 (1984)). Injection solutions of EGTA (40-400 mM) and BAPTA (50-500 mM) were made up in H2O, pH adjusted to 7.4 with KOH or HCl, and filtered to minimize plugging (Acrodisc-13, […]). Pressure was set between 200-400 kPa. The volume of injections was regulated by adjusting the time of pulses (0.1-1 sec) and was estimated by measuring the diameters of ejected droplets.
(§5) Concentration-inhibition curves were fit with equation 2.
(§6) I/Icontrol=1/(1+([antagonist]/10^−pIC50)^n) Eq. 2
(§7) in which Icontrol is the current evoked by agonists alone, pIC50=−log IC50, […] is the concentration of antagonist that produces half maximal inhibition, and n is the slope factor. For incomplete curves analysis by fitting was unreliable and IC50 values were calculated by simple regression over linear portions of the curves (Origin: Microcal Software).
(§8) Drugs were initially dissolved at concentrations of 10-100 mM in DMSO. Dilutions were then made to generate a series of DMSO stock solutions over the range 10 μM to 100 mM. Working solutions were made by 1000-3000 fold dilution of stocks into Ringer. […]

NR1A/2C NMDA receptor = NR1A/2C NMDA receptor (Rattus norvegicus, UniProt P35439+Q00961); test: Xenopus oocyte expression system, two-electrode voltage clamp, NR1A/2C; format: cell-based
From the text: as §1, §2, §3, §4, §5, §6, §7, §8

NR1A/2A NMDA receptor = NR1A/2A NMDA receptor (Rattus norvegicus, UniProt P35439+Q00959); test: Xenopus oocyte expression system, two-electrode voltage clamp, NR1A/2A; format: cell-based
From the text: as §1, §2, §3, §4, §5, §6, §7, §8

[1] = cloned NR1A/2B subunits expressed in Xenopus oocytes, inhibition of agonist-evoked membrane current, read-out: 1A/2B IC50
[2] = cloned NR1A/2C subunits expressed in Xenopus oocytes, inhibition of agonist-evoked membrane current, read-out: 1A/2C IC50
[3] = cloned NR1A/2A subunits expressed in Xenopus oocytes, inhibition of agonist-evoked membrane current, read-out: 1A/2A IC50

Sequence of NR1A/2A NMDA receptor (Q00959 20-1464 limits assumed, other chains not shown): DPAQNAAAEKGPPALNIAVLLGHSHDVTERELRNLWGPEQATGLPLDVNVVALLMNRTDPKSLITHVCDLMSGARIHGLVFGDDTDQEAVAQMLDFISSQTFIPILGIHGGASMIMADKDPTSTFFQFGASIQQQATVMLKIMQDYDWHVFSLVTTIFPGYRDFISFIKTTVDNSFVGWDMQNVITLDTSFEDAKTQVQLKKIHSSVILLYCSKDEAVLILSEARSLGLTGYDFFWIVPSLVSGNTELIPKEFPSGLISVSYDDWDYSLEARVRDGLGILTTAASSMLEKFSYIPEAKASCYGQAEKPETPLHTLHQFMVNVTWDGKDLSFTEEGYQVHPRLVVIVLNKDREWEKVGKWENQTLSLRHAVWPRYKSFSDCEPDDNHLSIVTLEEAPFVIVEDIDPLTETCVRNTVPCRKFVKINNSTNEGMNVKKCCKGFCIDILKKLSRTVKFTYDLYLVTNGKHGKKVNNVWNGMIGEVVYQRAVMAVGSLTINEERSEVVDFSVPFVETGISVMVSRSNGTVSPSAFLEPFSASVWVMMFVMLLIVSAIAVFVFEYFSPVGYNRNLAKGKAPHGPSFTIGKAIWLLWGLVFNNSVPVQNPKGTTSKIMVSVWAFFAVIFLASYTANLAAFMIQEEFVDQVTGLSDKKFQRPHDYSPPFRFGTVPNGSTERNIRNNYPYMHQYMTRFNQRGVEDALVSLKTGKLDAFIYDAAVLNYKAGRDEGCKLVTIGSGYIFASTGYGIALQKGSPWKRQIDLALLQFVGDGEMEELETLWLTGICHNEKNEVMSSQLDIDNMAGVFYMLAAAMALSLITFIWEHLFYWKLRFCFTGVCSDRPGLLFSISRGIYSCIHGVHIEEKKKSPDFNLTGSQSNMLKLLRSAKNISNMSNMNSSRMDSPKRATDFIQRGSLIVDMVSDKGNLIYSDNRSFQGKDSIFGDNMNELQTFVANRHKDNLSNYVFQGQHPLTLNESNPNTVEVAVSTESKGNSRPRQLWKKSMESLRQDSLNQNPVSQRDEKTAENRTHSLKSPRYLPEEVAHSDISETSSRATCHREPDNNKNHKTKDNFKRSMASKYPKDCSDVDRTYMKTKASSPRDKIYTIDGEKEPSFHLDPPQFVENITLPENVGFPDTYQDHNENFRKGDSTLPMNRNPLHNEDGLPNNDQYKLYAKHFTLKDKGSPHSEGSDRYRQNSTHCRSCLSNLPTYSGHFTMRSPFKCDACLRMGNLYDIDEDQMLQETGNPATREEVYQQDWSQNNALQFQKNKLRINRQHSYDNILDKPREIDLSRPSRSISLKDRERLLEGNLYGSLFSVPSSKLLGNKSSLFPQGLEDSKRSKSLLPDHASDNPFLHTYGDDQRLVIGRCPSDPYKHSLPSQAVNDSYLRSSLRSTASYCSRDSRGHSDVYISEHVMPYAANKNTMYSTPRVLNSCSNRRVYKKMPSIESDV
Sequence of NR1A/2B NMDA receptor (Q00960 27-1482, other chains not shown): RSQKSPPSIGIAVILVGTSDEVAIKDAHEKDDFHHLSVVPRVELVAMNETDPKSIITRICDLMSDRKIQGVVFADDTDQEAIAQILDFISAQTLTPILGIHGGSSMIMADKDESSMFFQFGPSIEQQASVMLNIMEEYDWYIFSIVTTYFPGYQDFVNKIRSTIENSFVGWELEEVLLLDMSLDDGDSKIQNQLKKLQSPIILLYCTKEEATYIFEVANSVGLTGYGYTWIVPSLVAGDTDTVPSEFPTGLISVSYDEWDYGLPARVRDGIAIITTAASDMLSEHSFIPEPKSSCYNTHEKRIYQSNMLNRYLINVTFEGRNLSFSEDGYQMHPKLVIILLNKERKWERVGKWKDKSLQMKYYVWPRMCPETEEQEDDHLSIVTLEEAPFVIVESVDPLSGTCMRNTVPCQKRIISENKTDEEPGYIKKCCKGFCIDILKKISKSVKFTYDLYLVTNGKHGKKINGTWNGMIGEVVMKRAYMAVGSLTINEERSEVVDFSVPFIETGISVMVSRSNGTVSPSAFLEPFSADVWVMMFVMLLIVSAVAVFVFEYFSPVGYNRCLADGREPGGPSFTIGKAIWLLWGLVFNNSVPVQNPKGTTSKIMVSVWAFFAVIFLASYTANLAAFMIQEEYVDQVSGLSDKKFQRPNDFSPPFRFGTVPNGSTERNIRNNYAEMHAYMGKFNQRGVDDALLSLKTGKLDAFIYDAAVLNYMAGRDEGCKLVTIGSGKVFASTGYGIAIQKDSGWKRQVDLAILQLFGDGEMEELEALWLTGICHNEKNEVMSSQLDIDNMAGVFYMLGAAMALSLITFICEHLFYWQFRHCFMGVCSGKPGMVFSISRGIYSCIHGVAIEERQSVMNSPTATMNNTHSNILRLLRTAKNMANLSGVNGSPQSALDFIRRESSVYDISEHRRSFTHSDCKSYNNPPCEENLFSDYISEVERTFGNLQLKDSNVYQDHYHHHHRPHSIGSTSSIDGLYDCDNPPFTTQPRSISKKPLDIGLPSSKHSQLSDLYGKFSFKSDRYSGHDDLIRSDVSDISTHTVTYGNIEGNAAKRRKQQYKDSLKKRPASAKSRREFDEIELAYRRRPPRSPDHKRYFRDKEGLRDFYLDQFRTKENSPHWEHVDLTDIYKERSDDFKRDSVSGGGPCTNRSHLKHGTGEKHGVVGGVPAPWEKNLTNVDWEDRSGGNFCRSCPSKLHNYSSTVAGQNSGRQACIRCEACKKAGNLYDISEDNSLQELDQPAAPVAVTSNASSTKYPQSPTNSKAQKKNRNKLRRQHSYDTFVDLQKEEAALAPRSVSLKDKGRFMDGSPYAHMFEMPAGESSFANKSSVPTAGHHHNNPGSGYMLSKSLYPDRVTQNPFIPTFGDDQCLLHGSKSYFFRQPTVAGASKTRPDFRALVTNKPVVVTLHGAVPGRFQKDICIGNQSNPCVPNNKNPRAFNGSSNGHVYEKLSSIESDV
Sequence of NR1A/2C NMDA receptor (Q00961 20-1237, other chains not shown): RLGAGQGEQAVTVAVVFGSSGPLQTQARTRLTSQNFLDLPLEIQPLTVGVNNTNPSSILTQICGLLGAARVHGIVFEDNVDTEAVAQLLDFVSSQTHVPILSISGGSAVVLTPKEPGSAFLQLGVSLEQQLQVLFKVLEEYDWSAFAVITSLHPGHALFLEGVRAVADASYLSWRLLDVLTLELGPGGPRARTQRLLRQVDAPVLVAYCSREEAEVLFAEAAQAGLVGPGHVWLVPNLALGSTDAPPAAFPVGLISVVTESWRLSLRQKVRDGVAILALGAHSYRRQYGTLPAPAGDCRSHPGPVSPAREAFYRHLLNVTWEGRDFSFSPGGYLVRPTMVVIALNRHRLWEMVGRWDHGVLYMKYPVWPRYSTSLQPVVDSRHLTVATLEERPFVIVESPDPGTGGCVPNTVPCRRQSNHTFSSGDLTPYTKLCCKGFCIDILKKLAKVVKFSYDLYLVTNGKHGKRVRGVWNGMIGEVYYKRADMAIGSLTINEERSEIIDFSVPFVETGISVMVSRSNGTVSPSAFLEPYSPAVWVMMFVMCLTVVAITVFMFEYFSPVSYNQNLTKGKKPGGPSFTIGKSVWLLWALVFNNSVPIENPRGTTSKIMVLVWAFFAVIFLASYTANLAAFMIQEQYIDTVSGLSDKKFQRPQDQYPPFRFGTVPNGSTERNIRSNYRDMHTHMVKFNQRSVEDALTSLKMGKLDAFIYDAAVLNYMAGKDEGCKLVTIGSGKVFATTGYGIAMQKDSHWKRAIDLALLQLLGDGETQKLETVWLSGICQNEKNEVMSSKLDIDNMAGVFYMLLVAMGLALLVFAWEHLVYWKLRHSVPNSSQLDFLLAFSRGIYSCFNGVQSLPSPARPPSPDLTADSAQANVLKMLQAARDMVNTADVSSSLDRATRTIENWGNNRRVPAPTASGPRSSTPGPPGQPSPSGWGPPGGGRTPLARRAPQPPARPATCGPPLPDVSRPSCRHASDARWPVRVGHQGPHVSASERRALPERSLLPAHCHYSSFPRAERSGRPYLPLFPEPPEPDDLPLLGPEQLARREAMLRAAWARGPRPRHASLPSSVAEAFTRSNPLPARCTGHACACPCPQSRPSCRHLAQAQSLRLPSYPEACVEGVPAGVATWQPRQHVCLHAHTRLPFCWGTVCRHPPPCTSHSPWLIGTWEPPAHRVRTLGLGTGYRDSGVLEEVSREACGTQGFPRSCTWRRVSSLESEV

Row | Compound | melting point | IC50 (NR1A/2B NMDA receptor; [1]) [µM] | IC50 (NR1A/2A NMDA receptor; [3]) [µM] | further results
1 | O=C(CCCN1CCc2c([nH]c3ccccc23)C1)c1ccc(F)cc1 | 188 to 190 °C | – | – | –
2 | Br.c1ccc(CC2CCCN(CCCOc3ccccc3)C2)cc1 (stereo not shown) | 148 to 149 °C | – | – | –
3 | OCCCN1CCC(Cc2ccccc2)CC1 (as salt: hydrobromid) [Ex. 83, 4-Benzyl-1-(3-hydroxypropyl)piperidine hydrobromide] | 122 to 124 °C | – | – | –
4 | COc1ccc(CC2CCN(CCCO)CC2)cc1 (as salt: hydrobromid) [Ex. 93, 1-(3-Hydroxypropyl)-4-(4-methoxybenzyl) piperidine hydrobromide] | 129 to 131 °C | – | – | –
5 | c1ccc(OCCN2CCc3ccccc3C2)cc1 (as salt: hydrochloride) [Ex. 18, N-(2-Phenoxyethyl)-1,2,3,4-tetrahydroisoquinoline] | 181 to 182 °C | – | – | –
6 | c1ccc(OCCCN2CCc3ccccc3C2)cc1 (as salt: hydrochloride) [Ex. 19, N-(3-Phenoxypropyl)-1,2,3,4-tetrahydroisoquinoline] | 194 to 195 °C | – | – | –
7 | CC(O)CCN1CCC(Cc2ccc(F)cc2)CC1 (stereo not shown) (as salt: hydrochloride) [Ex. 91, 4-(4-Fluorobenzyl)-1-(3-hydroxybutyl) piperidine hydrochloride] | 99 to 103 °C | – | – | –
8 | O=c1[nH]c2ccc(OCCCN3CCc4ccccc4C3)cc2[nH]1 (as salt: hydrochloride) [Ex. 108, N-(3-(2-oxobenzimidazol-5-oxy)propyl)-1,2,3,4-tetrahydroisoquinoline] | 210 to 215 °C (dec.) | – | – | –
9 | Clc1ccc(CC2CCN(C3CCc4ccccc4C3)CC2)cc1 (stereo not shown) (as salt: hydrochloride) [Example 98, 4-(4-Chlorobenzyl)-1-(tetralin-2-yl)piperidine hydrochloride] | 243 to 245 °C (dec.) | – | – | –
10 | c1ccc(OCCCN2CCc3c([nH]c4ccccc34)C2)cc1 [Ex. 25, 2-(3-Phenoxypropyl)-1,2,3,4-tetrahydro-9H-pyrido[3,4-b]indole] | 123 to 124 °C | 9 | 60 | IC50 (NR1A/2C NMDA receptor; [2]): 175 µM
11 | c1ccc(CCCN2CCc3c([nH]c4ccccc34)C2)cc1 [Ex. 26, 2-(3-Phenylpropyl)-1,2,3,4-tetrahydro-9H-pyrido[3,4-b]indole] | 130 to 131 °C | 15 | 30 | IC50 (NR1A/2C NMDA receptor; [2]): 105 µM
12 | CC(C)(O)CCN1CCC(Cc2ccccc2)CC1.Cl [Ex. 102, 4-benzyl-1-(3-hydroxy-3-methylbutyl) piperidine hydrochloride] | 136 to 138 °C | – | – | IC50 (NR1A/2B NMDA receptor): 3.5 µM; IC50 (NR1A/2C NMDA receptor): > 300 µM; IC50 (NR1A/2A NMDA receptor): > 300 µM
13 | Oc1ccc(CCNC2=NCC(Cc3ccccc3)CN2)cc1 (stereo not shown) [Ex. 103, 2-[2-(4-Hydroyphenyl)ethylamino]-5-benzyl-1,3-diazacyclohexene] | 153 to 155 °C | 0.2 | 3.5 | IC50 (NR1A/2C NMDA receptor; [2]): 58 µM
14 | Br.Fc1ccc(OCCNN2CCC(Cc3ccc(Cl)cc3)CC2)cc1 [Ex. 106, 4-(4-Chlorobenzyl)-1-(N-(2-(4-fluorophenoxy)ethyl)amino)piperidine hydrobromide] | 214 to 215 °C (dec.) | 5 | 8.5 | IC50 (NR1A/2C NMDA receptor; [2]): 23 µM
15 | Cl.Oc1ccc(OCCN2CCC(C[C@]34C[C@H]5C[C@H](C[C@H](C5)C3)C4)CC2)cc1 [Ex. 107, 4-(1-Adamantylmethyl)-1-(2-(4-hydroxyphenoxy)ethyl)piperidine] | 178 to 179 °C | 160 | 250 | IC50 (NR1A/2C NMDA receptor; [2]): 75 µM

More lines, main results first:

Row | melting point | IC50 (NR1A/2B NMDA receptor; [1]) [µM] | IC50 (NR1A/2A NMDA receptor; [3]) [µM] | Compound | further results
16 | 129 to 130 °C | – | – | OCCCCN1CCC(Cc2ccccc2)CC1 (as salt: hydrobromid) [Ex. 86, 4-Benzyl-1-(4-hydroxybutyl)piperidine hydrobromide] | –
17 | 139.5 to 140 °C | – | – | OCCCN1CCC(Cc2ccc(Cl)cc2)CC1 (as salt: hydrobromid) [Ex. 89, 4-(4-Chlorobenzyl)-1-(3-hydroxypropyl) piperidine hydrobromide] | –
18 | 108 to 110 °C | – | – | OCCCN1CCC(Cc2ccc(F)cc2)CC1 (as salt: hydrobromid) [Ex. 90, 4-(4-Fluorobenzyl)-1-(3-hydroxypropyl) piperidine hydrobromide] | –
19 | 148 to 151 °C | – | – | COc1ccc(C(=O)C2CCN(CCCO)CC2)cc1 (as salt: hydrobromid) [Example 78, 1-(3-Hydroxypropyl)-4-(4-methoxybenzoyl)piperidine] | –
20 | 156 to 157 °C | – | – | OC1(Cc2ccccc2)CCN(CCCc2ccccc2)CC1 (as salt: hydrochloride) [Ex. 16, 4-Benzyl-4-hydroxy-1-(3-phenylpropyl)piperidine] | –
21 | 161 to 162 °C | – | – | O=C(c1ccccc1)C1CCN(CCOc2ccccc2)CC1 (as salt: hydrochloride) [Ex. 27, 4-Benzoyl-1-(2-phenoxyethyl)piperidine] | –
22 | 128 to 130 °C | – | – | C[C@@H](CO)CN1CCC(Cc2ccc(F)cc2)CC1 (as salt: hydrochloride) [Ex. 92, (R)-4-(4-Fluorobenzyl)-1-(3-hydroxy-2-methylpropyl) piperidine hydrochloride] | –
23 | 155 to 160 °C | – | – | CC(O)CCN1CCC(Cc2ccc(N)cc2)CC1 (stereo not shown) (as salt: hydrochloride) [Ex. 105, 4-(4-aminobenzyl)-1-(3-hydroxy-butyl) piperidine hydrochloride] | –
24 | 62 to 64 °C | 3.3 | 290 | OCCN1CCC(Cc2ccccc2)CC1 [Ex. 82, 4-Benzyl-1-(2-hydroxyethyl)piperidine] | IC50 (NR1A/2C NMDA receptor; [2]): > 300 µM
25 | 74 to 76 °C | 6 | 270 | CC(CCO)N1CCC(Cc2ccccc2)CC1 (stereo not shown) [Ex. 84, 4-Benzyl-1-(3-hydroxy-1-methylpropyl)piperidine] | IC50 (NR1A/2C NMDA receptor; [2]): > 300 µM
26 | 92 to 94 °C | 6 | > 300 | OCC(O)CN1CCC(Cc2ccccc2)CC1 (stereo not shown) [Ex. 85, 4-Benzyl-1-(2,3-dihydroxypropyl)piperidine] | IC50 (NR1A/2C NMDA receptor; [2]): > 300 µM
27 | 105 to 107 °C | 280 | 260 | CC(O)CCN1CCC(Cc2ccc([N+](=O)[O-])cc2)CC1.Cl (stereo not shown) [Ex. 101, 4-(4-nitrobenzyl)-1-(3-hydroxybutyl) piperidine hydrochloride] | –
28 | 106 to 108 °C | – | – | O=C(c1ccc(F)cc1)C1CCN(CCCO)CC1 [Example 77, 4-(p-fluorobenzoyl)-1-(3-hydroxypropyl)piperidine] | –
29 | 77 to 80 °C | – | – | O=C(c1ccccc1O)C1CCN(CCCO)CC1 [Example 79, 4-(2-Hydroxybenzoyl)-1-(3-hydroxypropyl)piperidine] | –
